From patent US8883963B2 (Cadila Healthcare Limited, priority 2007, dated 2014)

What was measured:
[1] = tested on: C57BL/6J mice (mild hyperglycemic); experiment: In vivo glucose reduction, acute single dose 120-min time-course, i.p. route; parameters: species or system mouse; unit not given here; conditions: male C57BL/6J mice
Description: All the animal experiments were carried out according to the internationally valid guidelines following approval by the ‘Zydus Research Center animal ethical committee’.
Two days prior to the study, the animals were randomised and divided into 5 groups (n=6), based upon their fed glucose levels. On the day of experiment, food was withdrawn from all the cages, water was given ad-libitum and were kept for overnight fasting. Vehicle (normal saline)/test/standard compounds were administered intraperitoneally (i.p.) or orally, on a body weight basis.
(§1) Blood samples were centrifuged and the separated serum was immediately subjected for the glucose estimation. Serum for insulin estimation was stored at −70° C. until used for the insulin estimation. The glucose estimation was carried out with DPEC-GOD/POD method (Ranbaxy Fine Chemicals Limited, Diagnostic division, India), using Spectramax-190, in 96-microwell plate reader (Molecular devices Corporation, Sunnyvale, Calif.). […] The AUC and BCAUC obtained from graphs were analyzed for one way ANOVA, followed by Dunnett's post test, using Graph Pad prism software. Furthermore, the insulin estimation was carried out using rat/mouse insulin ELISA kit (Linco research, Missouri USA).

[2] = tested on: C57BL/6J mice (mild hyperglycemic); experiment: In vivo glucose reduction, acute single dose 120-min time-course, oral route; parameters: species or system mouse; unit not given here; conditions: male C57BL/6J mice
Description: Acute single dose 120-min time-course experiments were carried out in male C57BL/6J or db/db mice, age 8-12 weeks, bred in-house. Animals were housed in groups of 6 animals per cage, for a week, in order to habituate them to vivarium conditions (25±4° C., 60-65% relative humidity, 12:12 h light:dark cycle, with lights on at 7.30 am). All the animal experiments were carried out according to the internationally valid guidelines following approval by the ‘Zydus Research Center animal ethical committee’.
Two days prior to the study, the animals were randomised and divided into 5 groups (n=6), based upon their fed glucose levels. On the day of experiment, food was withdrawn from all the cages, water was given ad-libitum and were kept for overnight fasting. Vehicle (normal saline)/test/standard compounds were administered intraperitoneally (i.p.) or orally, on a body weight basis. Soon after the 0 min. blood collection from each animal, the subsequent blood collections were done at 30, 60 and 120 or up to 240 min., via retro-orbital route, under light ether anesthesia (Chen, D., et al., Diabetes Obesity Metabolism, 2005, 7, 307. Kim, J. G. et al., Diabetes, 2003, 52, 751).
as §1, with “USA). Changes in the blood glucose levels, at 0, 30, 60 and 120 min, with selected peptidomimetics are shown in Table 7 (via ip route of administration) and Table 8 (via oral route of administration) respectively.” for “USA).”

| SMILES | blood glucose levels ([2]; 2 μM/kg oral, 0 min) | blood glucose levels ([2]; 2 μM/kg oral, 30 min) | blood glucose levels ([2]; 2 μM/kg oral, 60 min) | blood glucose levels ([2]; 2 μM/kg oral, 120 min) | blood glucose levels ([1]; 10 nM/kg i.p., 0 min) | blood glucose levels ([1]; 10 nM/kg i.p., 30 min) | blood glucose levels ([1]; 10 nM/kg i.p., 60 min) | blood glucose levels ([1]; 10 nM/kg i.p., 120 min) | blood glucose levels ([1]; 20 nM/kg i.p., 0 min) | blood glucose levels ([1]; 20 nM/kg i.p., 30 min) | blood glucose levels ([1]; 20 nM/kg i.p., 60 min) | blood glucose levels ([1]; 20 nM/kg i.p., 120 min) | also measured |
| --- | --- | --- | --- | --- | --- | --- | --- | --- | --- | --- | --- | --- | --- |
| CCc1cc(OC)ccc1-c1ccc(CC(C(=O)N(C)C(CCCc2ccccc2)C(N)=O)N(C)C(=O)[C@H](CC(=O)O)NC(=O)[C@H](CO)NC(=O)[C@@H](NC(=O)C(C)(Cc2ccccc2F)NC(=O)[C@@H](NC(=O)CNC(=O)C(CCC#N)NC(=O)C(C)(C)NC(=O)[C@@H](N)Cc2c[nH]cn2)[C@H](C)O)[C@H](C)O)cc1 (single isomer, unassigned) [Seq. ID. 142] | 185 ± 2.3 | 115 ± 3.8 | 113 ± 4.9 | 109 ± 2.2 |  |  |  |  |  |  |  |  | blood glucose levels ([1]; 30 nM/kg i.p., 0 min): 183 ± 4.9; blood glucose levels ([1]; 30 nM/kg i.p., 30 min): 117 ± 2.5; blood glucose levels ([1]; 30 nM/kg i.p., 60 min): 116 ± 2.3; blood glucose levels ([1]; 30 nM/kg i.p., 120 min): 119 ± 2.0 |
| CCc1cc(OC)ccc1-c1ccc(CC(NC(=O)[C@H](CC(=O)O)NC(=O)[C@H](CO)NC(=O)[C@@H](NC(=O)[C@H](Cc2ccccc2)NC(=O)[C@@H](NC(=O)CNC(=O)C(CCC#N)NC(=O)C(C)(C)NC(=O)[C@@H](N)Cc2c[nH]cn2)[C@@H](C)O)[C@@H](C)O)C(=O)NC(CCCc2ccc(F)cc2C(F)(F)F)C(N)=O)cc1 (single isomer, unassigned) [Seq. ID. 80] |  |  |  |  | 183 ± 2.2 | 113 ± 2.8 | 113 ± 2.9 | 114 ± 2.0 |  |  |  |  | blood glucose levels ([2]; 0.5 μM/kg oral, 0 min): 184 ± 2.5; blood glucose levels ([2]; 0.5 μM/kg oral, 30 min): 115 ± 3.6; blood glucose levels ([2]; 0.5 μM/kg oral, 60 min): 113 ± 4.2; blood glucose levels ([2]; 0.5 μM/kg oral, 120 min): 110 ± 2.4 |
| CCc1cc(OC)ccc1-c1ccc(CC(NC(=O)[C@H](CC(=O)O)NC(=O)[C@H](CO)NC(=O)[C@@H](NC(=O)[C@H](Cc2ccccc2)NC(=O)[C@@H](NC(=O)CNC(=O)C(CCC#N)NC(=O)C(C)(C)NC(=O)[C@@H](N)Cc2c[nH]cn2)[C@@H](C)O)[C@@H](C)O)C(=O)NC(CCCc2ccccc2F)C(N)=O)cc1 (single isomer, unassigned) [Seq. ID. 77] | 183 ± 2.1 | 118 ± 3.4 | 113 ± 4.6 | 111 ± 2.8 |  |  |  |  | 183 ± 4.9 | 120 ± 2.8 | 129 ± 3.0 | 139 ± 2.0 |  |
| CCc1cc(OC)ccc1-c1ccc(CC(CNC(CCCc2ccccc2)C(N)=O)NC(=O)[C@H](CC(=O)O)NC(=O)[C@H](CO)NC(=O)[C@@H](NC(=O)C(C)(Cc2ccccc2F)NC(=O)[C@@H](NC(=O)CNC(=O)C(CCC#N)NC(=O)C(C)(C)NC(=O)[C@@H](N)Cc2c[nH]cn2)[C@H](C)O)[C@H](C)O)cc1 (single isomer, unassigned) [Seq. ID. 190] | 183 ± 2.1 | 118 ± 3.4 | 113 ± 4.6 | 111 ± 2.8 | 182 ± 2.1 | 121 ± 2.9 | 130 ± 3.1 | 138 ± 2.4 |  |  |  |  |  |
| CCc1cc(OC)ccc1-c1ccc(CC(NC(=O)[C@H](CC(=O)O)NC(=O)[C@H](CO)NC(=O)[C@@H](NC(=O)[C@H](Cc2ccccc2)NC(=O)[C@@H](NC(=O)CNC(=O)C(CCC#N)NC(=O)C(C)(C)NC(=O)[C@@H](N)Cc2c[nH]cn2)[C@@H](C)O)[C@@H](C)O)C(=O)NC(CCCc2ccc(OC)cc2Cl)C(N)=O)cc1 (single isomer, unassigned) [Seq. ID. 84] | 183 ± 2.4 | 116 ± 3.1 | 112 ± 4.8 | 110 ± 2.5 | 182 ± 2.3 | 110 ± 2.3 | 112 ± 3.0 | 112 ± 1.9 |  |  |  |  |  |
| CCc1cc(OC)ccc1-c1ccc(CC(NC(=O)[C@H](CC(=O)O)NC(=O)[C@H](CO)NC(=O)[C@@H](NC(=O)C(C)(Cc2ccccc2F)NC(=O)[C@@H](NC(=O)CNC(=O)C(CCC#N)NC(=O)C(C)(C)NC(=O)[C@@H](N)Cc2c[nH]cn2)[C@H](C)O)[C@H](C)O)C(=S)NC(CCCc2ccccc2F)C(N)=O)cc1 (single isomer, unassigned) [Seq. ID. 168] |  |  |  |  |  |  |  |  | 182 ± 3.3 | 120 ± 3.6 | 127 ± 3.4 | 145 ± 2.1 | blood glucose levels ([2]; 1.5 μM/kg oral, 0 min): 183 ± 2.0; blood glucose levels ([2]; 1.5 μM/kg oral, 30 min): 117 ± 1.1; blood glucose levels ([2]; 1.5 μM/kg oral, 60 min): 112 ± 1.1; blood glucose levels ([2]; 1.5 μM/kg oral, 120 min): 110 ± 1.8 |
| CCc1cc(OC)ccc1-c1ccc(CC(NC(=O)[C@H](CC(=O)O)NC(=O)[C@H](CO)NC(=O)[C@@H](NC(=O)C(C)(Cc2ccccc2F)NC(=O)[C@@H](NC(=O)CNC(=O)C(CCC#N)NC(=O)C(C)(C)NC(=O)[C@H](Cc2c[nH]cn2)NC(C)=O)[C@@H](C)O)[C@@H](C)O)C(=O)NC(CCCc2ccccc2F)C(N)=O)cc1 (single isomer, unassigned) [Seq. ID. 207] | 183 ± 2.4 | 116 ± 3.1 | 112 ± 4.8 | 110 ± 2.5 |  |  |  |  |  |  |  |  | blood glucose levels ([1]; 50 nM/kg i.p., 0 min): 184 ± 5.0; blood glucose levels ([1]; 50 nM/kg i.p., 30 min): 122 ± 3.8; blood glucose levels ([1]; 50 nM/kg i.p., 60 min): 128 ± 2.1; blood glucose levels ([1]; 50 nM/kg i.p., 120 min): 149 ± 2.3 |
| CCc1cc(OC)ccc1-c1ccc(CC(NC(=S)[C@H](CC(=O)O)NC(=O)[C@H](CO)NC(=O)[C@@H](NC(=O)C(C)(Cc2ccccc2F)NC(=O)[C@@H](NC(=O)CNC(=O)C(CCC#N)NC(=O)C(C)(C)NC(=O)[C@@H](N)Cc2c[nH]cn2)[C@H](C)O)[C@H](C)O)C(=S)NC(CCCc2ccccc2F)C(N)=O)cc1 (single isomer, unassigned) [Seq. ID. 180] | 184 ± 2.2 | 118 ± 3.3 | 112 ± 4.4 | 110 ± 2.9 |  |  |  |  | 180 ± 3.1 | 122 ± 3.9 | 129 ± 2.2 | 140 ± 2.9 |  |
| CCc1cc(OC)ccc1-c1ccc(CC(NC(=O)[C@H](CC(=O)O)NC(=O)[C@H](CO)NC(=O)[C@@H](NC(=O)[C@H](Cc2ccccc2)NC(=O)[C@@H](NC(=O)CNC(=O)C(CCC#N)NC(=O)C(C)(C)NC(=O)[C@@H](N)Cc2c[nH]cn2)[C@@H](C)O)[C@@H](C)O)C(=O)NC(CCCc2ccccc2)C(N)=O)cc1 (single isomer, unassigned) [Seq. ID. 29] | 184 ± 2.5 | 118 ± 3.6 | 113 ± 4.2 | 110 ± 2.4 |  |  |  |  |  |  |  |  | blood glucose levels ([1]; 30 nM/kg i.p., 0 min): 180 ± 1.2; blood glucose levels ([1]; 30 nM/kg i.p., 30 min): 116 ± 3.2; blood glucose levels ([1]; 30 nM/kg i.p., 60 min): 116 ± 3.1; blood glucose levels ([1]; 30 nM/kg i.p., 120 min): 118 ± 1.8 |
| CCc1cc(OC)ccc1-c1ccc(CC(CNC(CCCc2ccccc2)C(N)=O)NC[C@H](CC(=O)O)NC(=O)[C@H](CO)NC(=O)[C@@H](NC(=O)C(C)(Cc2ccccc2F)NC(=O)[C@@H](NC(=O)CNC(=O)[C@H](CCC(N)=O)NC(=O)C(C)(C)NC(=O)[C@H](Cc2c[nH]cn2)NC(C)=O)[C@H](C)O)[C@H](C)O)cc1 (single isomer, unassigned) [Seq. ID. 197] |  |  |  |  |  |  |  |  |  |  |  |  | blood glucose levels ([1]; 50 nM/kg i.p., 0 min): 180 ± 4.2; blood glucose levels ([1]; 50 nM/kg i.p., 30 min): 113 ± 3.2; blood glucose levels ([1]; 50 nM/kg i.p., 60 min): 112 ± 2.4; blood glucose levels ([1]; 50 nM/kg i.p., 120 min): 110 ± 1.9 |
